Experimental data taken from ChEMBL document CHEMBL4311943, “3-[(1S,2S,3R)-2,3-Difluoro-1-hydroxy-7-methylsulfonylindan-4-yl]oxy-5-fluorobenzonitrile (PT2977), a Hypoxia-Inducible Factor 2α (HIF-2α) Inhibitor for the Treatment of Clear Cell Renal Cell Carcinoma” (J Med Chem, 2019).
The source made the active and inactive calls. No cut-off for these calls is given here.

What was measured:
[1] = Volume of distribution at steady state in monkey at 1 mg/kg, iv by UPLC-MS analysis; format: ADME, organism-based, Macaca mulatta; conditions: rhesus monkey, in vivo, read-out: Vdss
[2] = Plasma concentration in patient with advanced solid tumor at 160 mg, po administered once daily measured on day 15 after 24 hrs; format: ADME, organism-based; conditions: human
[3] = biological target: Calcium/calmodulin-dependent protein kinase type IV (Homo sapiens) (UniProt Q16566); test: Activity at human CAMK4 at 10 uM
[4] = biological target: Prostaglandin E2 receptor EP2 subtype (Homo sapiens) (UniProt P43116); test: Activity at human Prostanoid EP2 receptor at 10 uM
[5] = biological target: Tyrosine-protein phosphatase non-receptor type 2 (Homo sapiens) (UniProt P17706); test: Activity at human TCPTP at 10 uM
Tyrosine-protein phosphatase non-receptor type 2 (Homo sapiens), sequence (P17706 whole entry): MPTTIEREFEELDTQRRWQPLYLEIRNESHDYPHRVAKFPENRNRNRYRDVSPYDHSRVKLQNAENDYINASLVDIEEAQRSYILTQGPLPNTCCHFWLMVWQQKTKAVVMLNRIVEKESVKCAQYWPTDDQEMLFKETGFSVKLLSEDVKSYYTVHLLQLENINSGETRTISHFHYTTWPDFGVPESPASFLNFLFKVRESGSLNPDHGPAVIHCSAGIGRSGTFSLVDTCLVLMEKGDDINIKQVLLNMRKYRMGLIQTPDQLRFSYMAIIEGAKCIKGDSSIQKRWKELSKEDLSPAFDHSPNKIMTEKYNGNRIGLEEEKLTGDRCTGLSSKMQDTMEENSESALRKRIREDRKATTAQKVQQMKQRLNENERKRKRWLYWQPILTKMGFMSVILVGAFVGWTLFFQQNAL

[6] = biological target: Muscarinic acetylcholine receptor M2 (Homo sapiens) (UniProt P08172); test: Activity at human M2 receptor at 10 uM
[7] = biological target: Melanocortin receptor 5 (Homo sapiens) (UniProt P33032); test: Activity at human MC5 receptor at 10 uM
[8] = biological target: Prostaglandin D2 receptor (Homo sapiens) (UniProt Q13258); test: Activity at human Prostanoid DP receptor at 10 uM
[9] = biological target: Cytochrome P450 2B6 (Homo sapiens, UniProt P20813); test: Inhibition of CYP2B6 in human liver microsomes up to 50 uM using bupropion as substrate measured after 10 mins in presence of NADPH by LC-MS/MS analysis; format: ADME
[10] = biological target: D(1A) dopamine receptor (Homo sapiens) (UniProt P21728); test: Activity at human D1 receptor at 10 uM
[11] = biological target: Receptor-type tyrosine-protein kinase FLT3 (Homo sapiens) (UniProt P36888); test: Activity at human Flt3 at 10 uM
[12] = biological target: Mitogen-activated protein kinase 1 (Homo sapiens) (UniProt P28482); test: Activity at human MAPK1 at 10 uM
Mitogen-activated protein kinase 1 (Homo sapiens), sequence (P28482 whole entry): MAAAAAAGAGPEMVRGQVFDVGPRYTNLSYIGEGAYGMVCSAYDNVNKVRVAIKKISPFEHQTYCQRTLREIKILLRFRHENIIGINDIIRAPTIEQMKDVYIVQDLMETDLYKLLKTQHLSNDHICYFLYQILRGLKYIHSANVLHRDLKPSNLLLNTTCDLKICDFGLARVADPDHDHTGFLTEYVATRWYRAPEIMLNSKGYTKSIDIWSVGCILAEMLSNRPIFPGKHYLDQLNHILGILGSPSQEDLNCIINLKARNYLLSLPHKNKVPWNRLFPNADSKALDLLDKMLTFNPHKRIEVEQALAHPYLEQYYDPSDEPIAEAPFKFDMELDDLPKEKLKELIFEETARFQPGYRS

[13] = biological target: Corticotropin-releasing factor receptor 1 (Homo sapiens) (UniProt P34998); test: Activity at human CRF1 receptor at 10 uM
[14] = biological target: Protein kinase C beta type (Homo sapiens) (UniProt P05771); test: Activity at human PKCbeta1 at 10 uM
[15] = biological target: Calcium/calmodulin-dependent protein kinase type II subunit delta (Homo sapiens) (UniProt Q13557); test: Activity at human CAMK2D at 10 uM
Calcium/calmodulin-dependent protein kinase type II subunit delta (Homo sapiens), sequence (Q13557 whole entry): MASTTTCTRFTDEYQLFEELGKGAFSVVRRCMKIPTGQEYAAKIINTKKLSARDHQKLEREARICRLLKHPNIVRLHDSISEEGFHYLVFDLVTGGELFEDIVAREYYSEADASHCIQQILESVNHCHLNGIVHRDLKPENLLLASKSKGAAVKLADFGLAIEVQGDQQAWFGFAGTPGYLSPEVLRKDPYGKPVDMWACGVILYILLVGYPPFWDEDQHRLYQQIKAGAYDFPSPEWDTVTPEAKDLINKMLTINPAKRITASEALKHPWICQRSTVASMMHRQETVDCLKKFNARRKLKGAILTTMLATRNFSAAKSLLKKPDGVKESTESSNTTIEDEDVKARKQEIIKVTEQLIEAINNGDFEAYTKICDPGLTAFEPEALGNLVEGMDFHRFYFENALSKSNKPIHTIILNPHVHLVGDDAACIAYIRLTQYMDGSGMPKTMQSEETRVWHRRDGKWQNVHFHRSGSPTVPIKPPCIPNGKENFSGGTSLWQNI

[16] = biological target: Galanin receptor type 1 (Homo sapiens) (UniProt P47211); test: Activity at human GAL1 receptor at 10 uM
[17] = biological target: Voltage-gated inwardly rectifying potassium channel KCNH2 (Homo sapiens, UniProt Q12809); test: Activity at human ERG at 10 uM
[18] = biological target: Adenosine receptor A1 (Homo sapiens) (UniProt P30542); test: Activity at human adenosine A1 receptor at 10 uM
[19] = AUClast in patient with advanced solid tumor at 120 mg, po administered once daily measured on day 15; format: ADME, organism-based; set-up: dose 120 mg, route oral, time 0 - last; conditions: human, in vivo
[20] = Plasma concentration in patient with advanced solid tumor at 240 mg, po administered once daily measured on day 15 after 24 hrs; format: ADME, organism-based; conditions: human
[21] = biological target: Protein kinase C eta type (Homo sapiens) (UniProt P24723); test: Activity at human PKCeta at 10 uM
[22] = biological target: Cytochrome P450 2C8 (Homo sapiens, UniProt P10632); test: Inhibition of CYP2C8 in human liver microsomes up to 50 uM using amodiaquine as substrate measured after 10 mins in presence of NADPH by LC-MS/MS analysis; format: ADME
Cytochrome P450 2C8, sequence (P10632 whole entry): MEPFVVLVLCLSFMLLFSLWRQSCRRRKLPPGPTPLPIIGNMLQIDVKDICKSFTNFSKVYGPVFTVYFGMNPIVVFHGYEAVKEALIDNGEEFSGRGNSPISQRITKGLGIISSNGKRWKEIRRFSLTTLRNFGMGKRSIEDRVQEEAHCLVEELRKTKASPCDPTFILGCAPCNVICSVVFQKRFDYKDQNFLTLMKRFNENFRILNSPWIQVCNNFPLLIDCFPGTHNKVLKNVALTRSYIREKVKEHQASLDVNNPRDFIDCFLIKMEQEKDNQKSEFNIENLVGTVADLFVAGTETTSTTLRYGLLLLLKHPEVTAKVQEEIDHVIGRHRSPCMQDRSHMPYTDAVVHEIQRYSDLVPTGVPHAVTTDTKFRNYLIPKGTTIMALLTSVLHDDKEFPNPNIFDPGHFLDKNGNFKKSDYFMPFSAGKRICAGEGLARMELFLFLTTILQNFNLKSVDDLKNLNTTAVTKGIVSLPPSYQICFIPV

[23] = biological target: Potassium voltage-gated channel subfamily A member 5 (Homo sapiens) (UniProt P22460); test: Activity at human Kv1.5 at 10 uM
[24] = biological target: Vasoactive intestinal polypeptide receptor 1 (Homo sapiens) (UniProt P32241); test: Activity at human VPAC1 long isoform at 10 uM
Vasoactive intestinal polypeptide receptor 1 (Homo sapiens), sequence (P32241 whole entry, canonical isoform): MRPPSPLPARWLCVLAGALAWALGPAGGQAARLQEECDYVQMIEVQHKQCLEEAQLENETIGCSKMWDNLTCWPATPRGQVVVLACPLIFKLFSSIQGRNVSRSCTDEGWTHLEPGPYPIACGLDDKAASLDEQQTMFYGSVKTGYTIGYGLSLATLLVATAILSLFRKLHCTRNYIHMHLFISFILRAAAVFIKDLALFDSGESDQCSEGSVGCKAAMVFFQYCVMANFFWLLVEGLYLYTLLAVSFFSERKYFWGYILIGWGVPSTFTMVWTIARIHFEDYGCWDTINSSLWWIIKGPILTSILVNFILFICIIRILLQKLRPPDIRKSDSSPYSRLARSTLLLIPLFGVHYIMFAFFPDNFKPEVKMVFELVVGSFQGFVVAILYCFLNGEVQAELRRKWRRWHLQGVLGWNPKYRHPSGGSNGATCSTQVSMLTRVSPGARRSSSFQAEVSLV

[25] = biological target: Vasoactive intestinal polypeptide receptor 1 (Homo sapiens) (UniProt P32241); test: Activity at human VPAC1 at 10 uM
[26] = biological target: Thromboxane A2 receptor (Homo sapiens) (UniProt P21731); test: Activity at human Prostanoid TP receptor at 10 uM
Thromboxane A2 receptor (Homo sapiens), sequence (P21731 whole entry): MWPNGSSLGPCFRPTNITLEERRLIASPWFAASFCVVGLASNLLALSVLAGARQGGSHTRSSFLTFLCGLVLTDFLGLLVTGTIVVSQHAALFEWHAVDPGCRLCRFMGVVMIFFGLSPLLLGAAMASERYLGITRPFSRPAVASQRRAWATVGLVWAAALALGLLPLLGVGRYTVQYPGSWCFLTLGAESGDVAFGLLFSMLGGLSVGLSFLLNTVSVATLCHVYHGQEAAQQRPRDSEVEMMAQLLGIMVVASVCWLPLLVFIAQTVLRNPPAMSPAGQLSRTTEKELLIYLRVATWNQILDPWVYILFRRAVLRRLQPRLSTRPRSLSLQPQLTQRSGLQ

[27] = biological target: Glycogen synthase kinase-3 beta (Homo sapiens) (UniProt P49841); test: Activity at human GSK3beta at 10 uM
Glycogen synthase kinase-3 beta (Homo sapiens), sequence (P49841 whole entry, looked up): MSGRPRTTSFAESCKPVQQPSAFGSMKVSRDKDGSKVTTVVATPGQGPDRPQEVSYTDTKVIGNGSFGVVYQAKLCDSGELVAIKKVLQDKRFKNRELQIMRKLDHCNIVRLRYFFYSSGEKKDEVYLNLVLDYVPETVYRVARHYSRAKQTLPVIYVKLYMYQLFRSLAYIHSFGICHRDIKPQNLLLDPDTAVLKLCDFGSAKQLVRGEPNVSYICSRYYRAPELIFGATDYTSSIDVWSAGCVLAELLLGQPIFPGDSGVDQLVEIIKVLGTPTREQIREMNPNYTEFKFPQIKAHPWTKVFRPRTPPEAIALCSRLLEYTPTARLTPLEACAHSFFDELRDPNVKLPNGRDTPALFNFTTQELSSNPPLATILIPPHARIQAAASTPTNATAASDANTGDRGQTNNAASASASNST

[28] = Plasma concentration in patient with advanced solid tumor at 80 mg, po administered once daily measured on day 15 after 24 hrs; format: ADME, organism-based; conditions: human
[29] = biological target: 5-hydroxytryptamine receptor 2C (Homo sapiens) (UniProt P28335); test: Activity at human 5-HT2C receptor at 10 uM
5-hydroxytryptamine receptor 2C (Homo sapiens), sequence (P28335 whole entry): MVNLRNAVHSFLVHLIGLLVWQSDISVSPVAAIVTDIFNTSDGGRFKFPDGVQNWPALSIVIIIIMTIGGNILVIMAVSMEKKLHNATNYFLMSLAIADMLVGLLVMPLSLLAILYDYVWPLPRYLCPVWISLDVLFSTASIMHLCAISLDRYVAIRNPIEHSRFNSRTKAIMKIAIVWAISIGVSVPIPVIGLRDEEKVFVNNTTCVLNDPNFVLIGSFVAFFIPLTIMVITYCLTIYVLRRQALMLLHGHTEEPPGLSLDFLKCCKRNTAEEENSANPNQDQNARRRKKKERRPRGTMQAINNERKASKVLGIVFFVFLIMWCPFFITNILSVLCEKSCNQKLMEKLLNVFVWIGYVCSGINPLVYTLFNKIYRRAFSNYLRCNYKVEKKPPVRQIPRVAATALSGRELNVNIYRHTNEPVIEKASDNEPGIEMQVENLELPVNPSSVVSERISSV

[30] = Cmax in patient with advanced solid tumor at 240 mg, po administered once daily measured on day 15; format: ADME, organism-based; set-up: dose 240 mg, route oral; conditions: human, in vivo
[31] = Cmax in patient with advanced solid tumor at 20 mg, po administered once daily measured on day 15; format: ADME, organism-based; set-up: dose 20 mg, route oral; conditions: human, in vivo
[32] = biological target: Protein kinase C iota type (Homo sapiens) (UniProt P41743); test: Activity at human PKCiota at 10 uM
Protein kinase C iota type (Homo sapiens), sequence (P41743 whole entry): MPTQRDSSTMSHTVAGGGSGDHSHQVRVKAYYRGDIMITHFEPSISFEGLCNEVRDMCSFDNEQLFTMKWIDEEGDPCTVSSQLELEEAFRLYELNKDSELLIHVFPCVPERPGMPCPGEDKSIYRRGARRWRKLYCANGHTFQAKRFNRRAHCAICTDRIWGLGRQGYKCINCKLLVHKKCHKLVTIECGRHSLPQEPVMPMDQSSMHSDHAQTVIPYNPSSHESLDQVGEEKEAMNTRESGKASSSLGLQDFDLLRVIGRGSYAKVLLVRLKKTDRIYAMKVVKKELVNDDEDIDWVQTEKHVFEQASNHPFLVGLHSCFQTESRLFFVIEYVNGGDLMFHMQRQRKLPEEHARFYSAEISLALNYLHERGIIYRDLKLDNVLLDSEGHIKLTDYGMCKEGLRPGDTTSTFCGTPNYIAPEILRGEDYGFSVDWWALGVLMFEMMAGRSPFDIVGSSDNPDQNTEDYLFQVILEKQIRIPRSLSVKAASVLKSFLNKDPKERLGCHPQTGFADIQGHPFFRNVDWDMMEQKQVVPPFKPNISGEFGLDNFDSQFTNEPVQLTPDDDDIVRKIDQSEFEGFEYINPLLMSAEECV

[33] = biological target: Urotensin-2 receptor (Homo sapiens) (UniProt Q9UKP6); test: Activity at human GPR14 receptor at 10 uM
[34] = Half life in patient with advanced solid tumor at 80 mg, po administered once daily measured on day 15; format: ADME, organism-based; conditions: human, in vivo
[35] = biological target: Cannabinoid receptor 1 (Homo sapiens) (UniProt P21554); test: Activity at human CB1 receptor at 10 uM
Cannabinoid receptor 1 (Homo sapiens), sequence (P21554 whole entry): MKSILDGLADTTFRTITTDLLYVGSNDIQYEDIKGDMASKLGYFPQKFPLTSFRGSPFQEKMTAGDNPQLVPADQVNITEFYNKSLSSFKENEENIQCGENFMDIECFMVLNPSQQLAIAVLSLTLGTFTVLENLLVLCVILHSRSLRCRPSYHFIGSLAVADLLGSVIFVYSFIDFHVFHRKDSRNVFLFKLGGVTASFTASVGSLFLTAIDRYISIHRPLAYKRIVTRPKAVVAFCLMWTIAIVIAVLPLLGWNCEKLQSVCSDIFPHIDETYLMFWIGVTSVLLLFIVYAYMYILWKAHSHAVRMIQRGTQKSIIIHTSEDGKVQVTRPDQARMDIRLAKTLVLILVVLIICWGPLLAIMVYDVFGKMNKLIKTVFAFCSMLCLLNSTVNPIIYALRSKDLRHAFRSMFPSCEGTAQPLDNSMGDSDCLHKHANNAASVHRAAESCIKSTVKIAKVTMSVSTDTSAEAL

[36] = biological target: B2 bradykinin receptor (Homo sapiens) (UniProt P30411); test: Activity at human bradykinin B2 receptor at 10 uM
B2 bradykinin receptor (Homo sapiens), sequence (P30411 whole entry): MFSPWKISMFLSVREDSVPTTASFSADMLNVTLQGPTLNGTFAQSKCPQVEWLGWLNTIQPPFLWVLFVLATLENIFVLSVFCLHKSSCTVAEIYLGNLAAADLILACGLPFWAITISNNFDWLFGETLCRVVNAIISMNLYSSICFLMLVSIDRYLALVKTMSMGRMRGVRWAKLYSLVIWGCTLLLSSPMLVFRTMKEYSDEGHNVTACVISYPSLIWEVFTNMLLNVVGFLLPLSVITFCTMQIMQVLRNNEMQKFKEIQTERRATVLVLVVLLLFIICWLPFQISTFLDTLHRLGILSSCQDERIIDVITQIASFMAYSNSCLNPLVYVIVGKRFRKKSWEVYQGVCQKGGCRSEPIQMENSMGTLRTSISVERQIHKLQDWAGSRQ

[37] = biological target: T1, UDP-glucuronosyltransferase 2B17 (Homo sapiens, UniProt O75795); test: Substrate activity at UGT2B17 in human intestinal microsomes assessed as enzyme-mediated glucuronidation by measuring Vmax per mg protein at 2 to 1000 uM preincubated for 5 mins followed by UDPGA addition and measured after 60 mins by LC-MS/MS analysis; format: ADME, Intestine; conditions: 1 h
T1 sequence (O75795 whole entry): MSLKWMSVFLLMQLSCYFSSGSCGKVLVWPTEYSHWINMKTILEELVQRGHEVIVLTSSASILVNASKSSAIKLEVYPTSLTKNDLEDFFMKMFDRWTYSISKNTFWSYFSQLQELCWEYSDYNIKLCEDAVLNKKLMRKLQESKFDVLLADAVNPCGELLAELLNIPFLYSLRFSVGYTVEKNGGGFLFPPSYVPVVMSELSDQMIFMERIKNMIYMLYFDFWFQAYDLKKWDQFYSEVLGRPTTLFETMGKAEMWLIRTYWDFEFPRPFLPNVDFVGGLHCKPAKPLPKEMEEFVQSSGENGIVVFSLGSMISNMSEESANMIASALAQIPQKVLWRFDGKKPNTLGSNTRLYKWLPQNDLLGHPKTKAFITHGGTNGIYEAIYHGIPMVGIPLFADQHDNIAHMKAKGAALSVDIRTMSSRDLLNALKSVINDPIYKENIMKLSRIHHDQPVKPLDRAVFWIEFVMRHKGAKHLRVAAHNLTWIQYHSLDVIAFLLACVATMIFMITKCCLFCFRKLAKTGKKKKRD

[38] = biological target: Tyrosine-protein kinase Lyn (Homo sapiens) (UniProt P07948); test: Activity at human Lyn at 10 uM

CS(=O)(=O)c1ccc(Oc2cc(F)cc(C#N)c2)c2c1[C@H](O)[C@H](F)[C@@H]2F [BELZUTIFAN]
Vd [1]: 2.9 L/kg | concentration at 24 h [2]: 490 ng/mL | Activity [3]: inactive | Activity [4]: inactive | Activity [5]: inactive | Activity [6]: inactive | Activity [7]: inactive | Activity [8]: inactive | inhibition (INH) [9]: Not Active | Activity [10]: inactive | Activity [11]: inactive | Activity [12]: inactive | Activity [13]: inactive | Activity [14]: inactive | Activity [15]: inactive | Activity [16]: inactive | Activity [17]: Not Active | Activity [18]: inactive | AUC(0-t) [19]: 25900 ng·h/mL | concentration at 24 h [20]: 570 ng/mL | Activity [21]: inactive | inhibition (INH) [22]: Not Active | Activity [23]: inactive | Activity [24]: inactive | Activity [25]: inactive | Activity [26]: inactive | Activity [27]: inactive | concentration at 24 h [28]: 490 ng/mL | Activity [29]: inactive | Cmax [30]: 2700 ng/mL | Cmax [31]: 200 ng/mL | Activity [32]: inactive | Activity [33]: inactive | half-life [34]: 15.4 h | Activity [35]: inactive | Activity [36]: inactive | Vmax [37]: 0.5 pmol/min | Activity [38]: inactive
